Reference: patent publication US20130012709A1, “NOVEL INHIBITORS OF STEAROYL-CoA-DESATURASE-1 AND THEIR USES” (CENTRE NATIONAL DE LA RECHERCHE SCIENTIFIQUE, priority 2009, published 2013)

How the values were obtained:
SCD-1 = target: T1, SCD-1 (Homo sapiens, UniProt O00767); experiment: Determination of SCD activity, [14C] palmitic to palmitoleic acid conversion in cells; type: cell-based; conditions: all three cell lines (LNCaP, C4-2, PNT2), 25 μM
T1 construct: endogenous in cells; host or cells: LNCaP, C4-2, PNT2 cells
T1 sequence (O00767 1-359): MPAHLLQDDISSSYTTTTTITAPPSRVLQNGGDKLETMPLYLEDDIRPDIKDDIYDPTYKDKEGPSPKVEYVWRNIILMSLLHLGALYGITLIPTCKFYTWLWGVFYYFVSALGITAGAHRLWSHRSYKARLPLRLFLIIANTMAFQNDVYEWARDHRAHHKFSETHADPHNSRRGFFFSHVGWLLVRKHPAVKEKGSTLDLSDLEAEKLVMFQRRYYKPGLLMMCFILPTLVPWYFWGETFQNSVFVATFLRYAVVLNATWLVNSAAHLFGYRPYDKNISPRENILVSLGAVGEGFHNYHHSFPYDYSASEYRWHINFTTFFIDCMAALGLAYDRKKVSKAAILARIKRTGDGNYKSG
Protocol: Subconfluent LNCaP, C4-2, PNT2 of Ras SV40 MEFs cells grown in 6-wells plate were incubated with the tested inhibitor at 25 μM for 2 h in serum and fatty acid-free DMEM media supplemented 0.2% BSA. In this environment, the cells are solely dependent on endogenous fatty acid synthesis for production of storage, structural and signaling lipids. Trace amount of [^14C] palmitic acid were then added to the culture (0.5 μCi/well), and cells were incubated for 6 more hours. At the end of the incubation, total cell lipids were extracted and saponified, then released fatty acids were esterified with boron trifluoride in methanol for 90 min at 100° C. […] Air-dried plates were scanned on a Phosphorlmager and fatty acid spots on TLC were analysed with Phosphorlmager software. SCD activity was expressed as the ratio of palmitoleic on palmitic methyl ester acids and normalized to cellular DNA content.
The efficacy of the tested compound to inhibit SCD-1 activity has been evaluated by measuring the conversion of exogenous [^14C] saturated palmitic acid (16:0) to monounsaturated palmitoleic acid (16:1n-7). Moreover, the effects of inhibition of SCD-1 activity on lipid synthesis and proliferation in prostate cancer cell lines were analysed.

[1] = system: p53−/− MEFs transformed by HaRasV12; experiment: Proliferation of MEFs; type: cell-based, mouse; conditions: p53−/− MEFs fully transformed by HaRasV12
Protocol: Primary MEFs were obtained from embryos at embryonic day 13.5 by standard methods.
Monolayer cell cultures were grown in Dulbecco's Modified Eagle's Medium (DMEM) supplemented with 25 mM glucose and 10% FCS.
At 24 h, 48 h, 72 h and 96 h following addition of increasing concentrations of the tested compound in DMSO or DMSO alone, cells were trypsinized, pelleted by centrifugation at 1200 rpm for 5 min, resuspended in 500 μl of culture medium and counted in an hemocytometer.

Question: For `COc1ccc(Br)c(C(=O)N2CCN(c3ccc(C(=O)NCCCc4ccccc4)cn3)CC2)c1` [BZ36], which “labelled monounsaturated palmitoleic acid vs control cells” value (SCD-1) is on record?
Answer: The value was “marked reduction”.

Question: What about the proliferation [1] of the same compound?
Answer: The proliferation was “efficiently blocked”.
